Experimental data: patent US8445509B2, “Fused heterocyclic derivatives and use thereof” (Takeda Pharmaceutical Company Limited, priority 2008, dated 2013)

Experiments:
[1] = target: T1, c-Met intracellular domain protein (Homo sapiens, UniProt P08581); test: Hepatocyte growth factor receptor (c-Met) kinase inhibitory activity (AlphaScreen); format: biochemical; conditions: for inhibition at 1 µM: 1 μM test compound, read-out: inhibitory rate (%) at 1 μM
T1 construct: 2.5 ng/ml of c-Met intracellular domain protein (Millipore); purchased Millipore
Method in brief: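 Compound in DMSO was diluted into 50 mM Tris-HCl pH 7.5, 5 mM MgCl2, 5 mM MnCl2, 2 mM DTT, 0.01% Tween-20. Enzyme (2.5 ng/ml) and biotin-poly-Glu:Tyr (4:1) (250 ng/mL) were added as a solution at these concentrations.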

[2] = tested on: Human gastric cancer cell line MKN-45; test: Human gastric cancer cell line MKN-45 growth inhibitory test; format: cell-based; conditions: MKN-45, 72 h, culture for 3 days; for inhibition at 1 µM: 1 μM test substance, read-out: inhibitory rate (%) at 1 μM; for IC50: read-out: IC50 value
Method in brief: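 MKN-45 cells plated at 3000/well in RPMI1640 with 0.3% FBS, then exposed to test substance for 3 days at 37 °C. Viability read by CCK-8 absorbance at 450 nm; IC50 from variable-slope sigmoidal fit, with DMSO as 100% growth and 10 µM reference c-Met inhibitor as 0% growth.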

[3] = target: T2, VEGFR2 intracellular domain protein (Homo sapiens, UniProt P35968); test: Vascular endothelial growth factor receptor 2 (VEGFR2) kinase inhibitory activity (AlphaScreen); format: biochemical
T2 construct: made in house; host or cells: SF-21 insect cells, recombinant baculovirus BAC-VEGFR2
Method in brief: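 FLAG-purified VEGFR2 intracellular domain from baculovirus-infected Sf21 cells was added as a 50 ng/mL solution with 250 ng/mL biotin-poly-Glu:Tyr (4:1) to compound in 50 mM Tris-HCl pH 7.5, 5 mM MgCl2, 5 mM MnCl2, 2 mM DTT, 0.01% Tween-20.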

T2 sequence (P35968 786-1356 limits assumed): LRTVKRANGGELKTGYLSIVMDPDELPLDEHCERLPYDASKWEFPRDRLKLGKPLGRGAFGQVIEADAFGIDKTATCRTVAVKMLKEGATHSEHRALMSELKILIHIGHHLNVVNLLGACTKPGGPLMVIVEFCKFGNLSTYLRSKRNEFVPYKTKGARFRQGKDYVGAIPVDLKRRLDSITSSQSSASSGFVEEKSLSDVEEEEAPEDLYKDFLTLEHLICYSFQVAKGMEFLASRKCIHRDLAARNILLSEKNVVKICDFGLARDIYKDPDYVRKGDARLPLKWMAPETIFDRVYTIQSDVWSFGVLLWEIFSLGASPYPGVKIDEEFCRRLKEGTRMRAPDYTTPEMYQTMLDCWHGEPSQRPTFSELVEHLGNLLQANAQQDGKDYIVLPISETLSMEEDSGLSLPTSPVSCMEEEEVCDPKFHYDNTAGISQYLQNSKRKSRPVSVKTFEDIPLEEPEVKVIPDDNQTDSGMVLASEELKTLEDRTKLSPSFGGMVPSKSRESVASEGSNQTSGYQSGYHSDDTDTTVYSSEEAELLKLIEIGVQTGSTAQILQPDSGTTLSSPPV
T1 sequence (P08581 956-1390 limits assumed): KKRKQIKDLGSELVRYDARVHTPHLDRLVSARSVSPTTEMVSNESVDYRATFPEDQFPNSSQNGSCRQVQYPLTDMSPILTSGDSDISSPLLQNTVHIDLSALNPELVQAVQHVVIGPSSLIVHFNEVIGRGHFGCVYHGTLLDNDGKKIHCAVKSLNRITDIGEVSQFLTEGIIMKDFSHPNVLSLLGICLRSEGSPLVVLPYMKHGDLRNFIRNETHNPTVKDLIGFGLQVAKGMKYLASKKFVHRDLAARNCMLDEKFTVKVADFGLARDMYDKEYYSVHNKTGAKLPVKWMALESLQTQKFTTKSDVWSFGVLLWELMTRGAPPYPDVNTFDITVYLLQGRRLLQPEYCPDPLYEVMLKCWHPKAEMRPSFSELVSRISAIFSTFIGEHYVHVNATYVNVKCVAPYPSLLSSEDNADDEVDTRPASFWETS

SMILES	IC50 [1] [nM]	inhibition at 1 µM [1] [%]	inhibition at 1 µM [2] [%]	IC50 [2] [nM]	IC50 [3] [nM]
Cc1cc(C)n(-c2ccc(F)cc2)c(=O)c1C(=O)Nc1ccc(Oc2ccc3nc(NC(=O)C4CC4)cn3c2)c(F)c1 [Example 82, N-[4-({2-[(cyclopropylcarbonyl)amino]imidazo[1,2-a]pyridin-6-yl}oxy)-3-fluorophenyl]-1-(4-fluorophenyl)-4,6-dimethyl-2-oxo-1,2-dihydropyridine-3-carboxamide]	≤ 1000	≥ 80	≥ 80	≤ 1000	≤ 1000
Cc1ccc(C(=O)Nc2ccc(Oc3ccc4nc(NC(=O)C5CC5)cn4c3)cc2F)[n+]([O-])c1-c1ccc(F)cc1 [Example 84, N-[4-({2-[(cyclopropylcarbonyl)amino]imidazo[1,2-a]pyridin-6-yl}oxy)-2-fluorophenyl]-6-(4-fluorophenyl)-5-methylpyridine-2-carboxamide 1-oxide]	≤ 1000	≥ 80	≥ 80	≤ 1000	≤ 1000
Cc1ccc(C(=O)Nc2ccc(Oc3ccc4nc(NC(=O)C5CC5)cn4c3)c(F)c2)[n+]([O-])c1-c1cccc(F)c1 [Example 93, N-[4-({2-[(cyclopropylcarbonyl)amino]imidazo[1,2-a]pyridin-6-yl}oxy)-3-fluorophenyl]-6-(3-fluorophenyl)-5-methylpyridine-2-carboxamide 1-oxide]	≤ 1000	≥ 80	≥ 80	≤ 1000	≤ 1000
